Experiment [1] has as its system retinal isomerase activity (recovery of 11-cis-retinal). In words: Comparative in vivo murine isomerase assay, dose response. On the set-up: species or system BALB/c mice. The note with it: for Avg. % Inhibition: 11-cis-retinal, drug vs. recovery control, listed as cmpd A. On the procedure: (§1) All test compounds were stored at room temperature, dessicated.
On the day prior to dose administration compound A and compound D were weighed into new empty glass vials. The compounds were dissolved in di-water at the concentration of 0.833 mg/mL compound A and 0.892 mg/mL compound D, serially diluted into various concentrations, and stored overnight at 4° C.
56 Male BALB/c mice (Charles River Laboratories) were used for this study. The mice were approximately 8 weeks at the initiation of dosing with an average body weight of 24 grams.
The day prior to dose administration 56 BALB/c mice were placed into a dark room and dark adapted for a minimum of 12 hours prior to dose administration. The mice were maintained in the dark for the duration of the study.
(§2) Each animal was removed from its cage and dosed accordingly to the study design in Table 4 (see below). Each animal was administered 0.1 mL of the appropriate compound or vehicle via oral gavage using a 1 mL syringe fitted with a 23 gauge oral gavage needle. Two hours following dose administration, animals were removed from the dark and exposed to 5000 Lux white light for 10 minutes to photobleach their eyes. Following the completion of the photobleach the animals were returned to the dark for 2 hours to allow for the regeneration of 11-cis-retinal in the eyes. Two hours after photobleaching each animal was euthanized with carbon dioxide followed by cervical dislocation, in the dark under red light. The light control group was euthanized immediately following photobleaching. Immediately following the cervical dislocation both eyes of each animal were removed and transferred into separate tubes, flash frozen in liquid nitrogen and stored in the dark at −80° C. until processing and analysis.
(§3) All sample processing procedures were performed in the dark under red light.
Extracted samples were analyzed using an Agilent 1100 HPLC system according to the procedure outlined in Table 6 (see below)
(§4) HPLC analysis of the eyes measures the peak area units of the 110cis-Ral-Oxime_syn. Signal.
(§5) Data analysis % inhibition (drug vs. recovery control). % control (drug vs. light control), and One-way ANOVA (followed by Tukey's Multiple Comparison) were performed using peak area units and performed by Prism software. Data are represented as mean and standard deviation.

The test system of experiment [2] is regeneration of 11-cis-retinal. Nature of the experiment: Single dose time course in the in vivo isomerase assay at 0.3 mg/kg. Also noted: species or system BALB/c mice. Particulars: for activity at 0.3 mg/kg: Mus musculus, read-out: Percent Control (Avg. % Inhibition). On the procedure:
as §1
The compounds were dissolved in di-water at the concentration of 0.068 mg/mL and stored overnight at 4° C.
52 Male BALB/c mice (Charles River Laboratories) were used for this study. The mice were approximately 8 weeks at the initiation of dosing with an average body weight of 23 grams.
The day prior to dose administration 52 BALB/c mice were placed into a dark room and dark adapted for a minimum of 12 hours prior to dose administration. The mice were maintained in the dark for the duration of the study.
as §2, with “Table 10” for “Table 4”, “appropriate test article” for “appropriate compound”, “vehicle orally” for “vehicle via oral gavage”, “needle. At 2, 4, 6, 8, 16 or 24” for “needle. Two”
as §3
Extracted samples were analyzed using an Agilent 1100 HPLC system according to the procedure outlined in Table 12 (see below)
as §4, §5

Experiment [3] relates to accumulation of A2E in the eyes. In words: A2E accumulation model. Format: in vivo, abca4−/−, RPE65 Leu450Leu mice. The note with it: for Day 91 A2E Concentration, individual animals: 91 days, left eye, animals 1-8, listed as Test cmpd. As for the experimental part: The purpose of this study was to assess the ability of test compounds to inhibit the accumulation of A2E in the eyes of abca4^−/−, RPE65 Leu450Leu mice (ABCR) following 91 days of continuous dosing.
The test compound (R)-3-amino-1-(3-((tetrahydro-2H-pyran-4-yl)methoxy)phenyl)-propan-1-ol (Example 1) was stored in a freezer set to maintain at approximately −20° C.
On the day prior to dosing and once weekly for 13 weeks the test articles were weighed into new empty glass scintillation vials. The compound was dissolved in ethanol (10% of final volume) and then diluted with deionized water (90% of total final volume) resulting in a concentrations of 0.2 mg/mL. This dosing solution was administered to the high dose groups (1 mg/kg). For the low dose groups (0.1 mg/kg) a […] dosing solution was prepared by diluting with vehicle (10% ethanol 90% water) to the appropriate concentration. The dosing solutions were stored in a refrigerator set to maintain between 2 to 8° C. and used for dose administration once per day for one week. The vehicle used for dosing control groups was 10% ethanol 90% deionized water.
Male and female abca4^−/−, and RPE65 Leu450Leu, mice (Charles River Laboratories) were used for this study. The mice were approximately 8-12 week old at the initiation of dosing with a starting average body weight of 19 grams for females and 27 grams for males.
Group 1 animals (Time zero for A2E accumulation) were euthanized with carbon dioxide followed by cervical dislocation on the first day of dosing. Immediately following the cervical dislocation both eyes of the animal was removed and transferred into separate tubes, flash frozen in liquid nitrogen and stored in the dark at −80° C. until processing and analysis.
The remaining groups (2-4) were dosed once each day for 13 weeks. When dosed each animal was administered a 5 mL/kg dose of the appropriate test compound or vehicle via oral gavage using a 1 mL syringe fitted with a 20 gauge oral gavage needle. Upon the completion of the study, animals were euthanized with carbon dioxide followed by cervical dislocation. Immediately following the cervical dislocation both eyes of the animal was removed and transferred into separate tubes, flash frozen in liquid nitrogen and stored in the dark at −80° C. until processing and analysis for A2E concentration.
as §3
Extracted samples were analyzed using an Agilent 1100 HPLC system according to the procedure outlined in Table 21 (See Below)
HPLC analysis of the eyes looks at the peak area units of the A2E present in the eyes following extraction as described above.
Data analysis % inhibition (drug vs. recovery control), % control (drug vs. light control), and One-way ANOVA (followed by Tukey's Multiple Comparison) were performed using peak area units and performed by Prism software. Data are represented as mean and standard deviation.

Setting [4] is: BALB/c mice, single oral dose, 2 hours.

“And” between values parts separate entries of the source, which are not always exact repeats. Equal entries are not always repeated. “Also recorded” adds a separate entry of the source. Where two headings read alike, the source gives them in different places.

This note sets out measurements from patent publication US9133154B2, “Substituted 3-phenylpropylamine derivatives for the treatment of ophthalmic diseases and disorders” (Acucela Inc., priority 2013, dated 2015).

By inhibition is commonly meant the share of the control response that was lost under treatment. A high value points to strong suppression. In the case of `NCC[C@@H](O)c1cccc(OCC2CCOCC2)c1` [Example 1], the “Avg. % Inhibition” value in experiment [1] (BALB/c mice, oral 0.3 mg/kg, 2 hours, 0.3 mg/kg) was found to be 92.4%; in experiment [1] (BALB/c mice, oral 0.5 mg/kg, 2 hours, 0.5 mg/kg), 99.3%. Besides, the “significance of inhibitory effect on the recovery of 11-cis-retinal vs. recovery control” value in experiment [1] (BALB/c mice, single oral dose 0.03-3 mg/kg, 2 hours, listed as compound A) was “statistically significant difference, P<0.001 for 0.3, 0.5, 1 and 3 mg/kg dose levels; also recorded: significant inhibitory effect at 0.3 mg/kg, 0.5 mg/kg, 1 mg/kg and 3 mg/kg dose levels”; in experiment [2] (BALB/c mice, single oral 0.3 mg/kg, 2, 4, 6, 8, 16 and 24 hours, listed as compound A, 0.3 mg/kg) it was “statistically significant difference, P<0.001, from the recovery control group for the 2, 4 and 6 hour time points; also recorded: not a statistically significant difference, P>0.05 for the 8, 16 and 24 time points; also recorded: significant inhibitory effect at 2, 4 and 6 hours; also recorded: no significant effect on the recovery of 11-cis-retinal at the 8, 16 and 24 hour time points; also recorded: statistically significant from the control group at the 2, 4, and 6 hour time points”. The “IC50 (dose response experiment)” value in experiment [1] (setting [4]) was 0.17 mg/kg. Moreover, the “dose at which 11-cis-retinal recovery was inhibited by 50%” value in experiment [1] (setting [4]) turned out to be 0.17 mg/kg. Further, the “times more active than compound D” value in experiment [1] (by IC50 of the dose response experiment) is on record as 3-4 ×; in experiment [1] (by dose showing nearly 100% inhibition (0.5 vs 3.0 mg/kg)), “approximately 6 ×”; in experiment [1] (by inhibition at a dose of 0.3 mg/kg), “greater than 10 ×”; in experiment [2] (time course experiment, 0.3 mg/kg), “greater than 10 ×”. Further, the activity at 0.3 mg/kg is 2% in experiment [2] (BALB/c mice, single oral 0.3 mg/kg, time point 2 hours); 11.5% in experiment [2] (BALB/c mice, single oral 0.3 mg/kg, time point 4 hours); 43.7% in experiment [2] (BALB/c mice, single oral 0.3 mg/kg, time point 6 hours); 79.8% in experiment [2] (BALB/c mice, single oral 0.3 mg/kg, time point 8 hours); 98.5% in experiment [2] (BALB/c mice, single oral 0.3 mg/kg, time point 16 hours); 95.8% in experiment [2] (BALB/c mice, single oral 0.3 mg/kg, time point 24 hours). Besides, the “Day 91 A2E Concentration, individual animals” value in experiment [3] (0.1 mg/kg oral once daily) is 9.64 Pico Moles/eye and 8.97 Pico Moles/eye and 10.23 Pico Moles/eye and 8.42 Pico Moles/eye and 8.49 Pico Moles/eye and 9.6 Pico Moles/eye and 11.68 Pico Moles/eye and 10.27 Pico Moles/eye; in experiment [3] (1.0 mg/kg oral once daily) it was 6.49 Pico Moles/eye and 7.68 Pico Moles/eye and 7.75 Pico Moles/eye and 8.87 Pico Moles/eye and 7.56 Pico Moles/eye and 8.01 Pico Moles/eye and 8.86 Pico Moles/eye and 9.49 Pico Moles/eye. Further, the “effect on the accumulation of A2E” value in experiment [3] (91 days of oral dosing at 0.1 mg/kg and 1.0 mg/kg) is recorded as “statistically significant inhibitory effects on the accumulation of A2E”. The molecule further yielded an inhibition at 0.1 mg/kg in experiment [3] (Mus musculus, 2184 h, 0.1 mg/kg daily oral administration for 91 days) of 46.4%. In addition, 1 mg/kg produced 65% inhibition in experiment [3] (Mus musculus, 2184 h, 1 mg/kg daily oral administration for 91 days).
